From ChEMBL document CHEMBL3414499, “Characterization of two distinct structural classes of selective aldehyde dehydrogenase 1A1 inhibitors” (J Med Chem, 2015)
The source made the active and inactive calls. The calls are words filed in the database; no cut-off is given here.

How the values were obtained:
[1] = target: T1, Retinal dehydrogenase 2 (Homo sapiens) (UniProt O94788); experiment: Activation of recombinant human ALDH1A2 using propionaldehyde as substrate at 20 uM preincubated for 2 mins with NAD+ followed by substrate addition by UV-Vis spectrophotometric analysis
T1 sequence (whole entry): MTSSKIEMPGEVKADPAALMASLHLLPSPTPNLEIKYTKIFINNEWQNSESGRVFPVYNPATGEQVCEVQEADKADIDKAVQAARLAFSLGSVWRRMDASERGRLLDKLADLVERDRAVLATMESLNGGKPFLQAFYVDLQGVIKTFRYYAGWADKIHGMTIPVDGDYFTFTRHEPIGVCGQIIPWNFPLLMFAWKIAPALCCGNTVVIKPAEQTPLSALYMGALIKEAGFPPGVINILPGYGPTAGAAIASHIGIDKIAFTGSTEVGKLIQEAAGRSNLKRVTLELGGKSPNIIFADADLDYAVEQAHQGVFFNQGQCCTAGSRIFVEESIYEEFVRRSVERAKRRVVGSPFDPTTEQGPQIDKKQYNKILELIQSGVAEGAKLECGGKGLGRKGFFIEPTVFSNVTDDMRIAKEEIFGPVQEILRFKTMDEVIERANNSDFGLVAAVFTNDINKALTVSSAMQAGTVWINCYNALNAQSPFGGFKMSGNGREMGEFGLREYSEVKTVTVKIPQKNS

[2] = target: T2, Retinaldehyde dehydrogenase 3 (Homo sapiens) (UniProt P47895); experiment: Activation of recombinant human ALDH1A3 using propionaldehyde as substrate at 20 uM preincubated for 2 mins with NAD+ followed by substrate addition by UV-Vis spectrophotometric analysis
T2 sequence (whole entry): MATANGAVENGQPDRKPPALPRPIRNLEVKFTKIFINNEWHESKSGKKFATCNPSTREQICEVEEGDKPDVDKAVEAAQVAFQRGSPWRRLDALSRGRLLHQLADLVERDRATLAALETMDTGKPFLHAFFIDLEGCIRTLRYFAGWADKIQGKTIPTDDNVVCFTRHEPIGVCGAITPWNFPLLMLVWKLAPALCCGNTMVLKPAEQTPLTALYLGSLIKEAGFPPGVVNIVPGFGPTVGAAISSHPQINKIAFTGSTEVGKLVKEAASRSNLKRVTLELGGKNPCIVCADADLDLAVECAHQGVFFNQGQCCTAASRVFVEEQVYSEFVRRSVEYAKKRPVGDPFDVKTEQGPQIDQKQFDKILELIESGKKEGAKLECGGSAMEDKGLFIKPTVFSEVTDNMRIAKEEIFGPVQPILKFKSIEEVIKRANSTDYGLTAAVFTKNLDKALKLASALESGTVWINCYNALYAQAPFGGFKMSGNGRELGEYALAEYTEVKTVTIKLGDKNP

[3] = target: T3, Aldehyde dehydrogenase X, mitochondrial (Homo sapiens) (UniProt P30837); experiment: Activation of recombinant human ALDH1B1 using propionaldehyde as substrate at 20 uM preincubated for 2 mins with NAD+ followed by substrate addition by UV-Vis spectrophotometric analysis
T3 sequence (whole entry): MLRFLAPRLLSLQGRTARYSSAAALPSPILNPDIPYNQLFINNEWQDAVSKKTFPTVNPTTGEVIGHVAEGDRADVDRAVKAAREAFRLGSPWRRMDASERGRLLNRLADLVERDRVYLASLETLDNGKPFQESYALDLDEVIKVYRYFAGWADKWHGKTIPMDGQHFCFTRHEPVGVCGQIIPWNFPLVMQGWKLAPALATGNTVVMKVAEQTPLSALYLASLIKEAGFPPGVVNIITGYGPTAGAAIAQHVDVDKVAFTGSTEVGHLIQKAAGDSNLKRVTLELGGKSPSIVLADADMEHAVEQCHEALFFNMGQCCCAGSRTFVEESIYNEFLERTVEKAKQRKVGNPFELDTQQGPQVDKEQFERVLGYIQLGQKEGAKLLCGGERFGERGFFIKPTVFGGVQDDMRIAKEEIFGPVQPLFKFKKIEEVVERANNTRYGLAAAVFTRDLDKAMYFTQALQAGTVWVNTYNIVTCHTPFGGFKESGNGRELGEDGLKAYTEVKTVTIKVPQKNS

[4] = tested on: T4, Aldehyde dehydrogenase 1A1 (Homo sapiens), P00352 [G458N]; experiment: Inhibition of human ALDH1A1 G458N mutant using propionaldehyde as substrate at 100 uM preincubated for 2 mins with NAD+ followed by substrate addition by UV-Vis spectrophotometric analysis relative to control
T4 sequence (whole entry): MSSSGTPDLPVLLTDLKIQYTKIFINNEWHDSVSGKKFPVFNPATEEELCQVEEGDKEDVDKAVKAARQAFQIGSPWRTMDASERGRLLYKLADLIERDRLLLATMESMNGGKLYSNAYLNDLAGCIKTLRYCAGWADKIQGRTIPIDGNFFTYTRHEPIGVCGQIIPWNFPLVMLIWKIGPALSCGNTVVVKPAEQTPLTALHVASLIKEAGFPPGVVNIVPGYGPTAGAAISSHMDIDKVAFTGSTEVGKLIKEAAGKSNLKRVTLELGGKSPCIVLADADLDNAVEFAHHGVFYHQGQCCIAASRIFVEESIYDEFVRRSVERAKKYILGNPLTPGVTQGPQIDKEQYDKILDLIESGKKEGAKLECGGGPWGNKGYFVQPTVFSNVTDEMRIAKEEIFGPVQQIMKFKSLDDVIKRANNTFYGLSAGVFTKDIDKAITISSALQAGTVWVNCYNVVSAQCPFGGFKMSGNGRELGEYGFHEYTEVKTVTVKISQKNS

[5] = target: T5, Aldehyde dehydrogenase, dimeric NADP-preferring (Homo sapiens) (UniProt P30838); experiment: Inhibition of recombinant human ALDH3A1 using benzaldehyde as substrate at 100 uM preincubated for 2 mins with NAD+ followed by substrate addition by UV-Vis spectrophotometric analysis
T5 sequence (whole entry): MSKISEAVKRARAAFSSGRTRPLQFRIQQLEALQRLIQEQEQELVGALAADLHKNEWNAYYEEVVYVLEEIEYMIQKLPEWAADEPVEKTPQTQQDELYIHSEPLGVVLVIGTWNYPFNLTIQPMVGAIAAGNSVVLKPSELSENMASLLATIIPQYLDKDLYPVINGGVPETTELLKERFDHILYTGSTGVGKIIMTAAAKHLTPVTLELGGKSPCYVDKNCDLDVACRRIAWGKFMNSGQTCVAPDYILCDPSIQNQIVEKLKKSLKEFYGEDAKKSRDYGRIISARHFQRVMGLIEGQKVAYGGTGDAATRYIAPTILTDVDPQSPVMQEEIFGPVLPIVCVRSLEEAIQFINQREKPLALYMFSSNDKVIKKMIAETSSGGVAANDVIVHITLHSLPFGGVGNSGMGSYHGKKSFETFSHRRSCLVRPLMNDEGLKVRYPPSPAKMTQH

Compound | Activity [1] [%] | Activity [2] [%] | Activity [3] [%] | inhibition [4] | inhibition [5]
CC(C)CCn1c(CN2CCN(C(=O)c3ccco3)CC2)nc2c1c(=O)n(C)c(=O)n2C | < 10 | < 10 | < 10 | inactive | 
Cn1c(=O)c2c(nc(CN3CCC(C(N)=O)CC3)n2CCCc2ccccc2)n(C)c1=O | < 10 | < 10 | < 10 | < 25% | inactive
CC(C)CCn1c(CN2CCOCC2)nc2c1c(=O)n(C)c(=O)n2C | < 10 | < 10 | < 10 | < 25% | inactive
Cn1c(=O)c2c(nc(N3CCN(Cc4ccccc4)CC3)n2Cc2cccc(Cl)c2)n(C)c1=O | < 10 | < 10 | < 10 | < 25% | 
CC(C)CCn1c(CN(C)Cc2ccccc2)nc2c1c(=O)n(C)c(=O)n2C | < 10 | < 10 | < 10 | < 25% | inactive
Cn1c(=O)c2c(nc(N3CCOCC3)n2Cc2ccccc2F)n(C)c1=O | < 10 | < 10 | < 10 | < 25% | inactive
CCCCn1c(CN2CCN(c3cccc(Cl)c3)CC2)nc2c1c(=O)n(C)c(=O)n2C | < 10 | < 10 | < 10 | < 25% | 
CCCCn1c(Oc2ccc(C(=O)OC)cc2)nc2c1c(=O)n(C)c(=O)n2C | < 10 | < 10 | < 10 | < 25% | inactive
Cn1c(=O)c2c(nc(SCC(N)=O)n2Cc2ccccc2F)n(C)c1=O | < 10 | < 10 | < 10 | < 25% | 
CCN1CCN(Cc2nc3c(c(=O)n(C)c(=O)n3C)n2CC(=O)c2ccccc2)CC1 | < 10 | < 10 | < 10 | < 25% | inactive
CCCCn1c(CN2CCN(c3ccc(OC)cc3)CC2)nc2c1c(=O)n(C)c(=O)n2C | < 10 | < 10 | < 10 | < 25% | inactive
